Data published in patent US10376520B2, “Methods for the treatment of cardiovascular disorders” (Galapagos NV, priority 2015, dated 2019).

System: RA patients
Assay: LDL determination, Study 2 (RA patients, monotherapy)
Format: in vivo, human
From the text: Randomized, double-blind, placebo-controlled, multicenter, phase IIb dose finding study of Compound 1 (dosed as a [Compound 1:HCl:3H2O]) administered for 24 weeks as monotherapy to subjects with moderately to severely active rheumatoid arthritis who have an inadequate response to methotrexate alone
Double-blind, placebo-controlled, monotherapy study in subjects with moderately to severely active RA who have an inadequate response to methotrexate (MTX) (oral or parenteral).
280 subjects randomized to one of 3 doses of Compound 1 (dosed as a [Compound 1:HCl:3H2O]) or to placebo, given once daily (q.d.).
Twelve weeks of treatment with Compound 1 (dosed as a [Compound 1:HCl:3H2O]) at 50 mg, 100 mg, or 200 mg q.d.; or placebo. At Week 12, all subjects on placebo and the subjects on the 50 mg dose who have not achieved 20% improvement in swollen joint count (SJC66) and tender joint count (TJC68) will be assigned to 100 mg q.d. in a blinded fashion and will continue treatment until Week 24. Subjects in the other groups will maintain their randomized treatment until Week 24.
The determination of [LDL]-cholesterol is made using an automated method taking advantage of the selective micellary solubilization of [LDL]-cholesterol by a nonionic detergent and the interaction of a sugar compound and lipoproteins (VLDL and chylomicrons).
When a detergent is included in the enzymatic method for cholesterol determination (cholesterol esterase, cholesterol oxidase coupling reaction), the relative reactivities of cholesterol in the lipoprotein fractions increase in this order: [HDL]<chylomicrons <VLDL <[LDL]. In the presence of Mg^2+, a sugar compound markedly reduces the enzymatic reaction of the cholesterol measurement in VLDL and chylomicrons. The combination of a sugar compound with detergent enables the selective determination of [LDL]-cholesterol in serum. (Friedewald et al., 1972; Rifai et al., 1992)
Homogeneous enzymatic colorimetric assay.
In the presence of peroxidase, the hydrogen peroxide generated reacts with 4-aminoantipyrine and Sodium N-(2-hydroxy-3-sulfopropyl)-3,5-dimethoxyaniline (HSDA) to form a purple-blue dye.
The color intensity of this dye is directly proportional to the cholesterol concentration and is measured photometrically.
Human serum and plasma samples [LDL] determination was done on a Roche/Hitachi Cobas c 701/702 system which automatically calculate the analyte concentration of each sample. Samples containing precipitates are centrifuged before performing the assay.

[1] = 50 mg q.d. non responders switching to 100 mg q.d. at week 12, week 1
[2] = 50 mg q.d. non responders switching to 100 mg q.d. at week 12, week 2
[3] = 50 mg q.d. non responders switching to 100 mg q.d. at week 12, week 4
[4] = 50 mg q.d. non responders switching to 100 mg q.d. at week 12, week 8
[5] = 50 mg q.d. non responders switching to 100 mg q.d. at week 12, week 12

With `O=C(Nc1nc2cccc(-c3ccc(CN4CCS(=O)(=O)CC4)cc3)n2n1)C1CC1` [Compound 1, cyclopropanecarboxylic acid {5-[4-(1,1-dioxo-thiomorpholin-4-ylmethyl)-phenyl]-[1,2,4]triazolo[1,5-a]pyridin-2yl}-amide] the “[LDL] Mean percentage CFB - 24 weeks results” value [1] was −0.30%, the “[LDL] Median percentage CFB - 24 weeks results” value [1] was 2.72% and the “[LDL] Mean percentage CFB - 24 weeks results” value [2] was 1.96%. For the same molecule, the “[LDL] Median percentage CFB - 24 weeks results” value [2] was −0.66%, the “[LDL] Mean percentage CFB - 24 weeks results” value [3] was 6.21% and the “[LDL] Median percentage CFB - 24 weeks results” value [3] was 1.36%. For the same molecule, the “[LDL] Mean percentage CFB - 24 weeks results” value [4] was 4.76%, the “[LDL] Median percentage CFB - 24 weeks results” value [4] was 2.69% and the “[LDL] Mean percentage CFB - 24 weeks results” value [5] was 6.13%. For the same molecule, the “[LDL] Median percentage CFB - 24 weeks results” value [5] was 3.06%, the “[LDL] Median percentage CFB - 24 weeks results” value (50 mg q.d. non responders switching to 100 mg q.d. at week 12, week 16) was 7.11% and the “[LDL] Median percentage CFB - 24 weeks results” value (50 mg q.d. non responders switching to 100 mg q.d. at week 12, week 20) was −0.80%. The “[LDL] Median percentage CFB - 24 weeks results” value (50 mg q.d. non responders switching to 100 mg q.d. at week 12, week 24) was 5.60%, the “[LDL] Mean percentage CFB - 24 weeks results” value (50 mg q.d. responders, week 1) was −0.43% and the “[LDL] Median percentage CFB - 24 weeks results” value (50 mg q.d. responders, week 1) was −0.29%. For the same molecule, the “[LDL] Mean percentage CFB - 24 weeks results” value (50 mg q.d. responders, week 2) was −2.56%, the “[LDL] Median percentage CFB - 24 weeks results” value (50 mg q.d. responders, week 2) was −2.27% and the “[LDL] Mean percentage CFB - 24 weeks results” value (50 mg q.d. responders, week 4) was 2.09%. The “[LDL] Median percentage CFB - 24 weeks results” value (50 mg q.d. responders, week 4) was −1.14%, the “[LDL] Mean percentage CFB - 24 weeks results” value (50 mg q.d. responders, week 8) was 6.10% and the “[LDL] Median percentage CFB - 24 weeks results” value (50 mg q.d. responders, week 8) was 5.33%. The “[LDL] Mean percentage CFB - 24 weeks results” value (50 mg q.d. responders, week 12) was 3.64%, the “[LDL] Median percentage CFB - 24 weeks results” value (50 mg q.d. responders, week 12) was 0.69% and the “[LDL] Mean percentage CFB - 24 weeks results” value (50 mg q.d. responders, week 16) was 7.12%. For the same molecule, the “[LDL] Median percentage CFB - 24 weeks results” value (50 mg q.d. responders, week 16) was 7.71%, the “[LDL] Mean percentage CFB - 24 weeks results” value (50 mg q.d. responders, week 20) was 1.20% and the “[LDL] Median percentage CFB - 24 weeks results” value (50 mg q.d. responders, week 20) was 3.91%. The “[LDL] Mean percentage CFB - 24 weeks results” value (50 mg q.d. responders, week 24) was 1.97%, the “[LDL] Median percentage CFB - 24 weeks results” value (50 mg q.d. responders, week 24) was −0.19% and the “[LDL] Mean percentage CFB - 12 weeks results” value (50 mg q.d., week 1) was −0.40%. The “[LDL] Median percentage CFB - 12 weeks results” value (50 mg q.d., week 1) was 0.18%, the “[LDL] Mean percentage CFB - 12 weeks results” value (50 mg q.d., week 2) was −1.59% and the “[LDL] Median percentage CFB - 12 weeks results” value (50 mg q.d., week 2) was −1.23%. For the same molecule, the “[LDL] Mean percentage CFB - 12 weeks results” value (50 mg q.d., week 4) was 2.97%, the “[LDL] Median percentage CFB - 12 weeks results” value (50 mg q.d., week 4) was 0.76% and the “[LDL] Mean percentage CFB - 12 weeks results” value (50 mg q.d., week 8) was 5.80%. The “[LDL] Median percentage CFB - 12 weeks results” value (50 mg q.d., week 8) was 4.49%, the “[LDL] Mean percentage CFB - 12 weeks results” value (50 mg q.d., week 12) was 4.19% and the “[LDL] Median percentage CFB - 12 weeks results” value (50 mg q.d., week 12) was 1.14%. The “[LDL] Mean percentage CFB - 12 weeks results” value (100 mg q.d., week 1) was 6.36%, the “[LDL] Mean percentage CFB - 24 weeks results” value (100 mg q.d., week 1) was 6.36% and the “[LDL] Median percentage CFB - 12 weeks results” value (100 mg q.d., week 1) was 1.97%. The “[LDL] Median percentage CFB - 24 weeks results” value (100 mg q.d., week 1) was 1.97%, the “[LDL] Mean percentage CFB - 12 weeks results” value (100 mg q.d., week 2) was 6.15% and the “[LDL] Mean percentage CFB - 24 weeks results” value (100 mg q.d., week 2) was 6.15%. The “[LDL] Median percentage CFB - 24 weeks results” value (100 mg q.d., week 2) was −1.82%, the “[LDL] Mean percentage CFB - 12 weeks results” value (100 mg q.d., week 4) was 10.29% and the “[LDL] Mean percentage CFB - 24 weeks results” value (100 mg q.d., week 4) was 10.29%.
